Drawing on patent US10961232B2, “Substituted pyrazines as ATR kinase inhibitors” (Vertex Pharmaceuticals Incorporated, priority 2008, dated 2021), this text covers Ki for 13 molecules.

As usually defined, the Ki is a measure of affinity in units of concentration, obtained from inhibition or displacement.

For the first test, the target named is full-length ATR (Homo sapiens (Human), UniProt Q13535). The experiment in a line: ATR inhibition assay (radioactive-phosphate incorporation). The format is biochemical.
Sequence of full-length ATR (Q13535 whole entry): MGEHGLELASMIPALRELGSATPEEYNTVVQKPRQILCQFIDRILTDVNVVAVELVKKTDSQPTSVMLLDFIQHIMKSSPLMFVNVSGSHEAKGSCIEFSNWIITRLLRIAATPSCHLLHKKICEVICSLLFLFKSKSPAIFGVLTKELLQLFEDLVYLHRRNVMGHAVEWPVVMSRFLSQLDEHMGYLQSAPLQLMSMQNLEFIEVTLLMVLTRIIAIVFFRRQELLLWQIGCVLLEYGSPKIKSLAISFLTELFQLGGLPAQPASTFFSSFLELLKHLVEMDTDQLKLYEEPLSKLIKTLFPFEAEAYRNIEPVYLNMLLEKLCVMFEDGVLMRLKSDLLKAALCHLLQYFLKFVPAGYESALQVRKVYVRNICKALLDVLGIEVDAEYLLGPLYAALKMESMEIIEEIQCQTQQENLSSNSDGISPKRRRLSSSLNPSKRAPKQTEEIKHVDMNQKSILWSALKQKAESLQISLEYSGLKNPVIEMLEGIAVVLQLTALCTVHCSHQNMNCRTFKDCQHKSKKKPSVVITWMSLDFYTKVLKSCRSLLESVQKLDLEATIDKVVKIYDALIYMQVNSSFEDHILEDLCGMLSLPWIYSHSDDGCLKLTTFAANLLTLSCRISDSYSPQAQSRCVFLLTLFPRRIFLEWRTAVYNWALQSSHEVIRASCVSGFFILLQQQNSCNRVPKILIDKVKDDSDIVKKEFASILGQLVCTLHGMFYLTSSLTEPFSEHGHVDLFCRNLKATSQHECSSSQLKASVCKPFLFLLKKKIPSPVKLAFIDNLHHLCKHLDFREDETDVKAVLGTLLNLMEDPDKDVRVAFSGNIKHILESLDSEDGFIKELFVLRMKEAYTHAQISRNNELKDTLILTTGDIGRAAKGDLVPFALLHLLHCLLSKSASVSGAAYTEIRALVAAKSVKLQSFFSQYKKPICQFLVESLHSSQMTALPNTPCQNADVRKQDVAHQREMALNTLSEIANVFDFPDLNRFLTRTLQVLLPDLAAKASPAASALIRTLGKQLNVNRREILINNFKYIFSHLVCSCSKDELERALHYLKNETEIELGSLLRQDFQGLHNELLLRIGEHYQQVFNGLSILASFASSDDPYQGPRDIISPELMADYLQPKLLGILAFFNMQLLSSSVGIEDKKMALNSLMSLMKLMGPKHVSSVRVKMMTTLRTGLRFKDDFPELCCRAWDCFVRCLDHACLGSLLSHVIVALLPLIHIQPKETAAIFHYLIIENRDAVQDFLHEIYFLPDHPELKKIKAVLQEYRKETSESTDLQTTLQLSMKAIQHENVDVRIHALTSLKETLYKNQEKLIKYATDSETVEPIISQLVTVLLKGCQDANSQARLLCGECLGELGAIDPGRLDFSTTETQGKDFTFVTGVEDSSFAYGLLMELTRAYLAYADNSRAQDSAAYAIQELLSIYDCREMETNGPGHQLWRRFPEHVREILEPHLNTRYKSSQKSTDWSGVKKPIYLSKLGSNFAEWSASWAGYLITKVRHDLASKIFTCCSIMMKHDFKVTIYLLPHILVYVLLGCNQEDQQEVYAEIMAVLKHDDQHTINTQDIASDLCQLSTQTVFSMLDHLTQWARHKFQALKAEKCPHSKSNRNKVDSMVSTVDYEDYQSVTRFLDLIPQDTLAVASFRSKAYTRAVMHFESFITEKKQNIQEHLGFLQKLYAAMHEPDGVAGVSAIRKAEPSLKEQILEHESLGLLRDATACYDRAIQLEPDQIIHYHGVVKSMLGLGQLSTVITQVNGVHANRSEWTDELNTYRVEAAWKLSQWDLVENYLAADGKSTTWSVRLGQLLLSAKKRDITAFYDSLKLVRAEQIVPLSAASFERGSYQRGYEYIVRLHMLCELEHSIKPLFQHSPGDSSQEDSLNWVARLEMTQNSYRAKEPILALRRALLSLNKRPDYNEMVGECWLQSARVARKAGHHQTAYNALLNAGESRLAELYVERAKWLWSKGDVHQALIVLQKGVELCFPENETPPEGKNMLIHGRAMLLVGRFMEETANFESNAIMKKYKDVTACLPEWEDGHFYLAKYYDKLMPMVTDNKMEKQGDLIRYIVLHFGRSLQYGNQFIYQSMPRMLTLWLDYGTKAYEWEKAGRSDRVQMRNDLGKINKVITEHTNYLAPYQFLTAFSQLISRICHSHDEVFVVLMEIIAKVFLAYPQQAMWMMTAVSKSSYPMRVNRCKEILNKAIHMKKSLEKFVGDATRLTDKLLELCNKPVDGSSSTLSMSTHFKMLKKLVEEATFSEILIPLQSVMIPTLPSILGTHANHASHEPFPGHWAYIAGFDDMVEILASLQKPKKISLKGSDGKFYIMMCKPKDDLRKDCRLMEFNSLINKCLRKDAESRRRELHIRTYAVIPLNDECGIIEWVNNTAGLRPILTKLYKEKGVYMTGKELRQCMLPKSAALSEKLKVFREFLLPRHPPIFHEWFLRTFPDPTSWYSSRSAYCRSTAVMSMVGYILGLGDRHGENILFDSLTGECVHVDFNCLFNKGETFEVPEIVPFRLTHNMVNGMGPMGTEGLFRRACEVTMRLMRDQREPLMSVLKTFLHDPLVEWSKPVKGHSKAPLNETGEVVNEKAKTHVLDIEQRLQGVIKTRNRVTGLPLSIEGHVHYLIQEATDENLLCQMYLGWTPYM
Settings: not given
How it is done:
Example 76A: ATR Inhibition Assay
Compounds were screened for their ability to inhibit ATR kinase using a radioactive-phosphate incorporation assay. Assays were carried out in a mixture of 50 mM Tris/HCl (pH 7.5), 10 mM MgCl2 and 1 mM DTT.
Assays were carried out at 25° C. in the presence of 5 nM full-length ATR. An assay stock buffer solution was prepared containing all of the reagents listed above, with the exception of ATP and the test compound of interest. […] The plate was pre-incubated for 10 minutes at 25° C. and the reaction initiated by addition of 15 μL [γ-33P]ATP (final concentration 10 μM).
The reaction was stopped after […] by the addition of 30 μL, 0.1M phosphoric acid containing 2 mM ATP. A multiscreen phosphocellulose filter 96-well plate (Millipore, Cat no. MAPHN0B50) was pretreated with 100 μL, 0.2M phosphoric acid prior to the addition of 45 μL of the stopped assay mixture. […] After drying, 100 μL Optiphase ‘SuperMix’ liquid scintillation cocktail (Perkin Elmer) was added to the well prior to scintillation counting (1450 Microbeta Liquid Scintillation Counter, Wallac).
After removing mean background values for all of the data points, Ki(app) data were calculated from non-linear regression analysis of the initial rate data using the Prism software package (GraphPad Prism version 3.0cx for Macintosh, GraphPad Software, San Diego, Calif., USA).
Take `CN(C)C1CCN(C(=O)c2cccc(-c3cnc(N)c(C(=O)Nc4ccccc4)n3)c2)C1` (stereo not shown) [Compound I-55, 3-amino-6-(3-(3-(dimethylamino)pyrrolidine-1-carbonyl)phenyl)-N-phenylpyrazine-2-carboxamide]: the Ki lay within 100 to 5000 nM. Consider `Nc1ncc(-c2cccc(C(=O)NC3CCC(O)CC3)c2)nc1C(=O)Nc1ccccc1` (stereo not shown) [Compound I-57, 3-amino-6-(3-(4-hydroxycyclohexylcarbamoyl)phenyl)-N-phenylpyrazine-2-carboxamide], for which the Ki is 100 to 5000 nM.

As to `CN(C)C1CCN(C(=O)c2ccc(-c3cnc(N)c(C(=O)Nc4ccccc4)n3)cc2)C1` (stereo not shown) [Compound I-76, 3-amino-6-(4-(3-(dimethylamino)pyrrolidine-1-carbonyl)phenyl)-N-phenylpyrazine-2-carboxamide], the Ki was in the range of 10 to 100 nM. Still for that read-out and setting: as for `Nc1ncc(-c2ccc(C(=O)N3CCCNCC3)cc2)nc1-c1noc(-c2ccccc2)n1` [IA-2], the figure is 10 to 100 nM; as for `CC(C)(C)CCN1CCCN(C(=O)c2ccc(-c3cnc(N)c(-c4nnc(-c5ccccc5)o4)n3)cc2)CC1` [IA-27], 10 to 100 nM; as for `Nc1ncc(-c2ccc(C(=O)N3CCCNCC3)c3ccccc23)nc1-c1nnc(-c2ccccc2)o1` [IA-48], 10 to 100 nM.

As to `CC(NC(=O)OC(C)(C)C)c1cccc(-c2nnc(-c3nc(-c4ccc(S(=O)(=O)C(C)C)cc4)cnc3N)o2)c1` (stereo not shown) [IA-154, tert-butyl N-[1-[3-[5-[3-amino-6-(4-isopropylsulfonylphenyl)pyrazin-2-yl]-1,3,4-oxadiazol-2-yl]phenyl]ethyl]carbamate], the inhibition constant (Ki) was at most 10 nM.

The test is the same for the next values; noted with them: ATR Inhibition Ki values; 5 nM full-length ATR, 10 μM ATP.
Turning to `CS(=O)(=O)c1ccc(-c2cnc(N)c(-c3nnc(-c4ccccc4)o3)n2)cc1` [IA-89, 5-(4-methylsulfonylphenyl)-3-(5-phenyl-1,3,4-oxadiazol-2-yl)pyrazin-2-amine], the Ki is at most 10 nM. Still for that read-out and setting: with `C[S+]([O-])c1ccc(-c2cnc(N)c(-c3nnc(-c4ccccc4)o3)n2)cc1` (stereo not shown) [IA-274, 5-(4-methylsulfinylphenyl)-3-(5-phenyl-1,3,4-oxadiazol-2-yl)pyrazin-2-amine] the figure was at most 10 nM; with `CNCc1ccc(-c2nnc(-c3nc(-c4ccc(S(=O)(=O)C(C)C)c(OC(F)(F)F)c4)cnc3N)o2)cc1` [IA-290, 5-[4-isopropylsulfonyl-3-(trifluoromethoxy)phenyl]-3-[5-[4-(methylaminomethyl)phenyl]-1,3,4-oxadiazol-2-yl]pyrazin-2-amine], at most 10 nM; with `CNCc1ccc(-c2nnc(-c3nc(-c4ccc(S(=O)(=O)C(C)CCOC)cc4)cnc3N)o2)c(F)c1` (stereo not shown) [IA-332, 3-[5-[2-fluoro-4-(methylaminomethyl)phenyl]-1,3,4-oxadiazol-2-yl]-5-[4-(3-methoxy-1-methyl-propyl)sulfonylphenyl]pyrazin-2-amine], at most 10 nM. Same read-out and setting: as for `CCc1cccc(NC(=O)c2nc(-c3ccc(S(C)(=O)=O)cc3)cnc2N)n1` [VII-4], the figure is 10 to 100 nM; as for `Cc1cccc(NC(=O)c2nc(-c3ccc(S(C)(=O)=O)cc3)cnc2N)n1` [VII-5], 10 to 100 nM.
